# According to US20180116213A1 (priority 2015, published 2018):
# Key:
# [1] = test system: leaf discs of the common lawn weed Plantiago major; experiment: Leaf disc bioassay, Plantiago major leaf discs; design: key to necrosis and chlorosis 18 HAT / necrosis and chlorosis 36 HAT: 0: no damage; +: minor damages; ++: severe damages on up to 50% of leave surface; +++: damages on more than 50% of leave surface; ++++: 100% damage
# From the text: (§1) The plants and leaves were visually assessed for damages by necrosis and chlorosis with the following scale for evaluation: • 0: no damage • +: minor damages • ++: severe damages on up to 50% of leave surface • +++: damages on more than 50% of leave surface • ++++: 100% damage
# 5 mm discs were cut from leaves of plants from Plantiago major, Sesamum indicum, Aegopodium potagraria and Chelidonium majus using a paper punch (5 mm). 3 leaf discs of 5 mm Ø were placed in each well of 12-well microtiter plates. Each well containing 2 ml deionized H2O, or solutions of various concentrations of glyphosate, 2,4-D or synergistic mixtures (M). The plates were incubated under continuous light at 20° C. for the listed times. The leaf discs were visually assessed for chlorosis and necrosis at various times after treatment according to the scale for classification. The visual rating utilized a rating scale from 0 to ++++, where 0=no damage by necrosis/chlorosis, and ++++=total damage by chlorosis/necrosis (see Literature).
# 3 leaf discs of 5 mm Ø were placed in each well of 12-well microtiter plates. Each well containing 2 ml deionized H2O, or solutions of various concentrations of 2,4-D or synergistic mixture M4 with a 1:1 mixture of citric acid and SDS. The plates were incubated under continuous light at 20° C. for the listed times. The leaf discs were visually assessed for chlorosis and necrosis according to the scale for classification and listed for hours after treatment (HAT). The visual rating utilized a rating scale from 0 to ++++, where 0=no damage by necrosis/chlorosis, and ++++=total damage by chlorosis/necrosis.
# plant leaves = experiment: Different tests (leaf disc bioassays, growth chamber trials, field trials), summary; conditions: herbicide alone at a concentration of 0.1% to 0.25%
# Protocol: The activity of the synergistic mixtures to enhance the efficacy of herbicides was tested in vitro by leaf disc bioassays, in growth chamber trials with seedlings and in field trials with various different weed species.
# as §1
# [2] = application rate 0.1 % of volume
# [3] = application rate 0.25 % of volume
# [4] = application rate 0.5 % of volume
compound,measurement,setting,value
"O=C(O)COc1ccc(Cl)cc1Cl [2,4-D, 2,4-dichlorophenoxyacetic acid]",necrosis and chlorosis 18 HAT,[1]; [2],0
same,necrosis and chlorosis 36 HAT,[1]; [2],0
same,necrosis and chlorosis 18 HAT,[1]; [3],0
same,necrosis and chlorosis 36 HAT,[1]; [3],0
same,necrosis and chlorosis 18 HAT,[1]; [4],0
same,necrosis and chlorosis 36 HAT,[1]; [4],0
same,damage of the leaf discs,"[1]; substance alone, conditions of Table 4",do not show efficient damage
same,damage of plant leaves,plant leaves,did not show any significant damage
